Measured values from the NIST ThermoML archive (doi:10.1021/acs.jced.7b00288).
± gives the expanded uncertainty stated by the source.

Key:
[1] = Crystal; DTA
[2] = Molar enthalpy of transition or fusion; conditions: Crystal; DSC

SMILES: Cc1ccc(NC(=O)C(C)Cl)cc1 (configuration not stated) [2-chloro-N-(4-methylphenyl)propanamide]
- Normal melting temperature [1]: 121.68 ± 0.43 °C
- Molar enthalpy of transition or fusion [2]: 6.4 ± 0.206 kcal/mol
